Laboratory results published in EPA's ToxValDB 9.5 (doi:10.2903/j.efsa.2017.4700).
Converted amounts (≈) assume the structure as drawn. “And” between values parts separate entries of the source, which are not always exact repeats. Equal values may be shown once.

Experiments:
Typhlodromus pyri = test: LR50; higher = less toxic; conditions: not reported; mortality
Tagia sp. = conditions: chronic/long-term; reproduction
Canidae = conditions: Dog Other, hematological
Daphnia magna = conditions: chronic/long-term; duration: 21 days; growth
Oncorhynchus mykiss = conditions: acute; mortality
Pimephales promelas = conditions: chronic/long-term; other
[1] = reproduction developmental; clinical signs
Apis mellifera = conditions: acute, mortality

Work on `CN(C)C(=S)SSC(=S)N(C)C` [Bis(dimethylaminothiocarbonyl) disulfide] yielded an LR50 (Typhlodromus pyri) of 511 g/ha, an NOEC (Tagia sp.) of 8.45 mg/kg and an LD50 (Colinus virginianus; acute, oral, mortality) of 930 mg/kg-day. It also gave an NOEC (Colinus virginianus; reproduction developmental) of 37.5 mg/kg-day, an NOAEL (Canidae; chronic, duration: 1 years) of 0.84 mg/kg-day and an NOAEL (Canidae; subchronic, duration: 90 days) of 2 mg/kg-day. It also gave an LD50 (Rattus norvegicus; acute, oral, mortality) of 1800 mg/kg-day, an NOAEL (Rattus norvegicus; chronic) of 1.6 mg/kg-day and an NOAEL (Rattus norvegicus; chronic, duration: 2 years, body weight) of 1.5 mg/kg-day. For the same compound, the NOAEL (Rattus norvegicus; reproduction developmental, body weight) was < 7.5 mg/kg-day and 3 mg/kg-day, the NOEC (Daphnia magna) was 20 µg/L and the LC50 (Oncorhynchus mykiss) was 171 µg/L (≈ 0.711 µM). It also gave an NOEC (Pimephales promelas) of 1.1 µg/L, an NOAEL [1] of 1.6 mg/kg-day and an LD50 (Apis mellifera; dermal) greater than 100 µg/piece. For the same compound, the LD50 (Apis mellifera; oral, unspecified) was greater than 107 µg/piece.
